According to patent publication US4048431A, “Alkylated derivatives of antibiotic BM123γ” (American Cyanamid Company, priority 1975, dated 1977):

Test system: Escherichia coli US311
Assay: in vivo protection of mice against lethal Escherichia coli US311 infection (single subcutaneous dose)
Design: species or system Escherichia coli US311 in Carworth Farms CF-1 mice
Settings: Carworth Farms CF-1 mice, about 20 gm., infected intraperitoneally with lethal dose of E. coli US311 (10^-3 TSP dilution of 5 hour TSP blood culture)
Protocol: These new substances show high in vivo antibacterial activity in mice against Escherichia coli US311 when administered by a single subcutaneous dose to groups of Carworth Farms CF-1 mice, weight about 20 gm., infected intraperitoneally with a lethal dose of this bacteria in a 10^- 3 trypticase soy broth TSP dilution of a 5 hour TSP blood culture. In Table VI below is set forth the in vivo activity of typical products of this invention (prepared from the indicated carbonyl reagents) against Escherichia coli US311 in mice. The activity is expressed in terms of the ED50 or the dose in mg./kg. of body weight required to protect 50% of the mice against E. coli.

Substance | ED50 (dose required to protect 50% of the mice against E. coli)
cyclobutyl-BM123γ | 0.38 mg./kg. of body weight
1-methyl-4-piperidyl-BM123γ | 0.75 mg./kg. of body weight
1-(carbethoxymethyl)butyl-BM123γ | 0.75 mg./kg. of body weight
1,3-dimethylbutyl-BM123γ | < 0.12 mg./kg. of body weight
trans-2-methyl-2-pentenyl-BM123γ | 0.18 mg./kg. of body weight
2-ethyl-2-butenyl-BM123γ | 0.18 mg./kg. of body weight
1-methylhexyl-BM123γ | 0.38 mg./kg. of body weight
1,2-dimethylpentyl-BM123γ | 0.18 mg./kg. of body weight
3,5-dimethylcyclohexyl-BM123γ | < 0.12 mg./kg. of body weight
1-ethylnonyl-BM123γ | 0.38 mg./kg. of body weight
2,2-dimethylbutyl-BM123γ | 0.12 mg./kg. of body weight
decahydro-1-methyl-2-naphthyl-BM123γ | 0.25 mg./kg. of body weight
1-carbomethoxy-2-carbomethoxyethyl-BM123γ | 0.75 mg./kg. of body weight
1-methyltridecyl-BM123γ | 2.0 mg./kg. of body weight
1-methyl-2-(N,N-dimethylamino)propyl-BM123γ | 1.5 mg./kg. of body weight
3-tert-pentylcyclopentyl-BM123γ | 0.5 mg./kg. of body weight
1-methylpropyl-BM123γ | < 0.12 mg./kg. of body weight
1,2,2-trimethylpropyl-BM123γ | < 0.12 mg./kg. of body weight
2-cyclohexylcyclohexyl-BM123γ | 0.75 mg./kg. of body weight
1-methyl-4-(N,N-diethylamino)butyl-BM123γ | 0.5 mg./kg. of body weight
1-cyclohexylpropyl-BM123γ | 0.37 mg./kg. of body weight

Substance | ED50 (dose required to protect 50% of the mice against E. coli)
1,3,3-trimethylcyclopentyl-BM123γ | 0.37 mg./kg. of body weight
1-propylbutyl-BM123γ | 0.25 mg./kg. of body weight
cycloheptyl-BM123γ | 0.3 mg./kg. of body weight
1,5-dimethylhexen(-4-)yl-BM123γ | 0.06 mg./kg. of body weight
adamantyl-2-BM123γ | 0.25 mg./kg. of body weight
cyclopentyl-BM123γ | 0.25 mg./kg. of body weight
1-methyl-2-o-[tolylcarbamoylethyl]-BM123γ | 0.25 mg./kg. of body weight
1-methyl-2-phenylethyl-BM123γ | 0.18 mg./kg. of body weight
1,2-dimethylpropyl-BM123γ | 0.19 mg./kg. of body weight
2-(1-cyclohexen)cyclohexyl-BM123γ | 0.19 mg./kg. of body weight
1-methyl-2-phenoxyethyl-BM123γ | 0.3 mg./kg. of body weight
1-methylbutyl-BM123γ | < 0.12 mg./kg. of body weight
1-ethyloctyl-BM123γ | 0.25 mg./kg. of body weight
trans-2-methyl-2-butenyl-BM123γ | 0.18 mg./kg. of body weight
3,3-dimethylcyclohexen(-4-)yl-BM123γ | 0.37 mg./kg. of body weight
1-methyl-3-(4-hydroxyphenyl)ethyl-BM123γ | 0.3 mg./kg. of body weight
1-methyl-3-(N,N-diethylamino)propyl-BM123γ | 0.18 mg./kg. of body weight
1-isopropyl-4-methylpentyl-BM123γ | 0.39 mg./kg. of body weight
1,2-dimethylbutyl-BM123γ | 0.12 mg./kg. of body weight
2-ethylidenecyclohexyl-BM123γ | 0.12 mg./kg. of body weight
1-methyl-2-(3-chlorophenyl)ethyl-BM123γ | 0.38 mg./kg. of body weight

Substance | ED50 (dose required to protect 50% of the mice against E. coli)
2-cyclopentylcyclopentyl-BM123γ | 0.37 mg./kg. of body weight
1-methyl-2-(β-indolyl)ethyl-BM123γ | 0.12 mg./kg. of body weight
1-methyl-2-chloro-2-carbethoxyethyl-BM123γ | 1.5 mg./kg. of body weight
2,2-dimethylpropyl-BM123γ | 0.18 mg./kg. of body weight
1,2-dimethyl-3-hydroxypropyl-BM123γ | 0.12 mg./kg. of body weight
2-(p-methoxyphenyl)ethyl-BM123γ | 0.18 mg./kg. of body weight
1-propylpentyl-BM123γ | 0.39 mg./kg. of body weight
2,4,4-trimethylcyclopentyl-BM123γ | 0.3 mg./kg. of body weight
2-ethylcyclohexyl-BM123γ | 0.19 mg./kg. of body weight
1-methyl-2-hydroxypropyl-BM123γ | 0.37 mg./kg. of body weight
1,3-dimethylpentyl-BM123γ | < 0.12 mg./kg. of body weight
1-methyl-3-phenylpropyl-BM123γ | 0.38 mg./kg. of body weight
1-methyl-2-(2-methoxyphenyl)ethyl-BM123γ | 0.7 mg./kg. of body weight
decahydro-3-methyl-2-naphthyl-BM123γ | 0.37 mg./kg. of body weight
4-t-butylcyclohexyl-BM123γ | 0.12 mg./kg. of body weight
2,2,4,4-tetramethylcyclopentyl-BM123γ | 0.75 mg./kg. of body weight
methyl-BM123γ | 0.12 mg./kg. of body weight
norbornyl-BM123γ | 0.18 mg./kg. of body weight
1-methyl-2-(3-hydroxy-2-methylpropyl)-BM123γ | 0.18 mg./kg. of body weight
1-[(dimethoxyphosphinyl)methyl]-hexyl-BM123γ | 0.3 mg./kg. of body weight

Same assay, conditions: Carworth Farms CF-1 mice, about 20 gm., infected intraperitoneally with lethal dose of E. coli US311 (10^-3 TSP dilution of 5 hour TSP blood culture), listed as 1-methyl-2,2-dimethylpropyl-BM123γ

Substance | ED50 (dose required to protect 50% of the mice against E. coli)
1,2,2-trimethylpropyl-BM123γ | 0.18 mg./kg. of body weight
